In brackets after ≈: the same amount, converted by molar mass. Where two headings read alike, the source gives them in different places.

Here are results for 5 compounds from US20240116985A1, “STAPLED PEPTIDES AND METHODS THEREOF” (priority 2020, published 2024).

In data set [1] the target is T1, full-length beta-Catenin (Uniprot ID P35222) (Homo sapiens, UniProt P35222).
T1 construct: 10 nM full-length beta-Catenin (Uniprot ID P35222)
T1 sequence (P35222 1-781): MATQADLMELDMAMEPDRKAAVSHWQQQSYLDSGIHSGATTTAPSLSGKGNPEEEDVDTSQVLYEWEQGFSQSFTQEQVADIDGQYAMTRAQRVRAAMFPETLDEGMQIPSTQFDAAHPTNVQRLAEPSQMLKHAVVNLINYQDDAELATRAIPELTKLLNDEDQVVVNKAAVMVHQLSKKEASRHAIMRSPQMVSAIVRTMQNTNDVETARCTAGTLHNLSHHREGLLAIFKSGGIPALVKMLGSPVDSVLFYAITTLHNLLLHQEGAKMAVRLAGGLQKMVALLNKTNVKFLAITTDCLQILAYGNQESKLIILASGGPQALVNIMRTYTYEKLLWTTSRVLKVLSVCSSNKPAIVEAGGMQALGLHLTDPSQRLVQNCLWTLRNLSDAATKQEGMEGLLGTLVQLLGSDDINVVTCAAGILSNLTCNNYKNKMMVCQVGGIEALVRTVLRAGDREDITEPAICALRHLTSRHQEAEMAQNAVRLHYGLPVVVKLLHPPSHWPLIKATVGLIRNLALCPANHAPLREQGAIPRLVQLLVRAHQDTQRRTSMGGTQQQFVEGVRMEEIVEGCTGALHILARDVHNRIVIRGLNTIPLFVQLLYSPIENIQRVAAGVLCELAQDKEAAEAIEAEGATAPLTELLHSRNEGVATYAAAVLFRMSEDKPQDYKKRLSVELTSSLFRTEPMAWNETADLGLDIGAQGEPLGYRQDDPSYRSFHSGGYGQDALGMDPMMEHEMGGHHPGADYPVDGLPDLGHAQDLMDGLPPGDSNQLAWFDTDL
In words: Fluorescence polarization IC50 (beta-catenin / 5FAM-TCF4 10-53 competition). Format: binding. The following applies: read-out: beta-Catenin FP IC50.

The next data set is described as follows: CHI Log D procedure. Format: physicochemical. Conditions: pH 7.4, CHI Log D.
Another data set in a line: Solubility in PBS. Format: physicochemical. The following applies: Solubility (uM). Put shortly: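 Steps: ultracentrifuge the peptide PBS solution, inject the supernatant on HPLC, inject a 50 μM peptide DMSO solution as reference, then calculate solubility as area ratio (PBS/DMSO) × 50 uM.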
The target in data set [2] is T2, beta-catenin/TCF4 engagement (Homo sapiens, UniProt P35222).
T2 construct: expressed in transfected cells; host or cells: HEK293
T2 sequence (P35222 1-781): T1 sequence (P35222 1-781)
In words: Nano-BRET target engagement assay (B-cat-Halo & TCF4-Luc in HEK293 cells). The following applies: read-out: NanoBRET Abs IC50. Format: cell-based.

Turning to `CC(=O)N1CCC[C@]12CC=CCCCC1(CCCC=CCCCOC(=O)N3CC[C@@](C(=O)N[C@@H](Cc4ccccc4Cl)C(=O)N[C@@H](Cc4csc5ccccc45)C(=O)N[C@@H](CCC(N)=O)C(N)=O)(C3)NC(=O)[C@H](CC(C)C)NC(=O)[C@H](Cc3cccc(C(F)(F)F)c3)NC(=O)[C@H](C)NC(=O)[C@H](C)NC(=O)[C@H](CC(=O)O)NC(=O)[C@H](CC(=O)O)NC1=O)NC(=O)[C@H](CC(C)(C)C)NC(=O)[C@H](CC(=O)O)NC2=O` (stereo partly drawn) [I-1122, Ac-PL3-Asp-Npg-B5-Asp-Asp-Ala-Ala-3F3MeF-Leu-PyrS2-2C1F-BztA-Gln-NH2], the 50% inhibitory concentration (IC50) was 34 nM in data set [1] and 12300 nM in data set [2]. The compound also displayed a chromatographic logD in the data set “CHI Log D procedure” of 2.41. In “Solubility in PBS”, this compound returned a Solubility of 14 µM (≈ 28.2 µg/mL).

With `CC(=O)N1CCC[C@]12CC=CCCCC1(CCCC=CCCCOC(=O)N3CC[C@@](C(=O)N[C@@H](Cc4ccccc4Cl)C(=O)N[C@@H](Cc4csc5ccccc45)C(=O)N[C@@H](CCC(N)=O)C(N)=O)(C3)NC(=O)[C@H](CC(C)C)NC(=O)[C@H](Cc3ccc(C(F)(F)F)cc3)NC(=O)[C@H](C)NC(=O)[C@H](C)NC(=O)[C@H](CC(=O)O)NC(=O)[C@H](CC(=O)O)NC1=O)NC(=O)[C@H](CC(C)(C)C)NC(=O)[C@H](CC(=O)O)NC2=O` (stereo partly drawn) [I-1123, Ac-PL3-Asp-Npg-B5-Asp-Asp-Ala-Ala-4F3MeF-Leu-PyrS2-2C1F-BztA-Gln-NH2], the figures for the IC50 in data set [1] and in data set [2] were 64 nM and 28500 nM, respectively. Moreover, the chromatographic logD in the data set “CHI Log D procedure” was found to be 2.46. For the same compound, the Solubility in “Solubility in PBS” was 12 µM (≈ 24.2 µg/mL).

As to `COc1cccc(C[C@@H]2NC(=O)[C@H](C)NC(=O)[C@H](C)NC(=O)[C@H](CC(=O)O)NC(=O)[C@H](CC(=O)O)NC(=O)C3(CCCC=CCCCOC(=O)N4CC[C@@](C(=O)N[C@@H](Cc5ccccc5)C(=O)N[C@@H](Cc5csc6ccccc56)C(=O)N[C@@H](CCC(N)=O)C(N)=O)(C4)NC(=O)[C@H](CO)NC2=O)CCCC=CC[C@]2(CCCN2C(C)=O)C(=O)N[C@@H](CC(=O)O)C(=O)N[C@@H](CC2CCCCC2)C(=O)N3)c1` (stereo partly drawn) [I-1124, Ac-PL3-Asp-Cha-B5-Asp-Asp-Ala-Ala-3OMeF-Ser-PyrS2-Phe-BztA-Gln-NH2], the IC50 in data set [1] is 12 nM; in data set [2] (absolute IC50), over 20000 nM. The compound also showed a chromatographic logD in “CHI Log D procedure” of 2.22. Moreover, the concentration in solution in “Solubility in PBS” (Solubility) came to 47 µM (≈ 91.2 µg/mL).

Take `CC(=O)N1CCC[C@]12CC=CCCCC1(CCCC=CCCCOC(=O)N3CC[C@@](C(=O)N[C@@H](Cc4ccccc4)C(=O)N[C@@H](Cc4csc5ccccc45)C(=O)N[C@@H](CCC(N)=O)C(N)=O)(C3)NC(=O)[C@H](CO)NC(=O)[C@H](Cc3cccc(C(F)(F)F)c3)NC(=O)[C@H](C)NC(=O)[C@H](C)NC(=O)[C@H](CC(=O)O)NC(=O)[C@H](CC(=O)O)NC1=O)NC(=O)[C@H](CC1CCCCC1)NC(=O)[C@H](CC(=O)O)NC2=O` (stereo partly drawn) [I-1125, Ac-PL3-Asp-Cha-B5-Asp-Asp-Ala-Ala-3F3MeF-Ser-PyrS2-Phe-BztA-Gln-NH2]: the IC50 in data set [1] is 16 nM; in data set [2] (absolute IC50) it was over 20000 nM. This compound also yielded a chromatographic logD in the data set “CHI Log D procedure” of 2.39. Besides, the concentration in solution in “Solubility in PBS” (Solubility) was 45 µM (≈ 89.1 µg/mL).

In the case of `CC(=O)N1CCC[C@]12CC=CCCCC1(CCCC=CCCCOC(=O)N3CC[C@@](C(=O)N[C@@H](Cc4ccccc4)C(=O)N[C@@H](Cc4csc5ccccc45)C(=O)N[C@@H](CCC(N)=O)C(N)=O)(C3)NC(=O)[C@H](CO)NC(=O)[C@H](Cc3ccc(C(F)(F)F)cc3)NC(=O)[C@H](C)NC(=O)[C@H](C)NC(=O)[C@H](CC(=O)O)NC(=O)[C@H](CC(=O)O)NC1=O)NC(=O)[C@H](CC1CCCCC1)NC(=O)[C@H](CC(=O)O)NC2=O` (stereo partly drawn) [I-1126, Ac-PL3-Asp-Cha-B5-Asp-Asp-Ala-Ala-4F3MeF-Ser-PyrS2-Phe-BztA-Gln-NH2], the concentration for half-maximal inhibition (IC50) in data set [1] is 32 nM; in data set [2], 26800 nM. In the data set “CHI Log D procedure”, this compound yielded a chromatographic logD of 2.42. The amount in solution in the data set “Solubility in PBS” (Solubility) came to 49 µM (≈ 97 µg/mL).
